Source: ChEMBL document CHEMBL3865835, “α-Glucosidase and α-Amylase Inhibitors from Arcytophyllum thymifolium” (J Nat Prod, 2016)
Activity calls are given as the source filed them. No cut-off for these calls is given here.

Experiments:
[1] = target: T1, Pancreatic alpha-amylase (Sus scrofa) (UniProt P00690); assay: (§1) Inhibition of hog pancreas alpha-amylase using starch as substrate preincubated for 10 mins followed by substrate addition measured after 10 mins by dinitrosalicylic acid color reagent-based UV-Vis spectrophotometric analysis
T1 sequence (whole entry): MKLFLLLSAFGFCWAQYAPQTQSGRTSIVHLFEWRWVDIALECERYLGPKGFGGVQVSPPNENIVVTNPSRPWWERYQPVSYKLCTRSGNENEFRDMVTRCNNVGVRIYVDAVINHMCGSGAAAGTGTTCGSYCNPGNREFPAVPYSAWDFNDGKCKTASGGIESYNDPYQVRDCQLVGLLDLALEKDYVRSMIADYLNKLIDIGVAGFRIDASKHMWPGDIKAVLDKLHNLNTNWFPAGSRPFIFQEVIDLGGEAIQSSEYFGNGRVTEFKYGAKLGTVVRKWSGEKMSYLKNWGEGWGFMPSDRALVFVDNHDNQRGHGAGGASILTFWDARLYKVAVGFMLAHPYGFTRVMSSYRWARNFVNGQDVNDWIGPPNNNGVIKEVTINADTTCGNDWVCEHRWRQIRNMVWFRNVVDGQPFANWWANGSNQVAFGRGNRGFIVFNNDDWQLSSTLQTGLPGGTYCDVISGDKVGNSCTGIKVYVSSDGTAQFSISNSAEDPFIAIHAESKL

[2] = (§2) Inhibition of Saccharomyces cerevisiae alpha-glucosidase using 4-nitrophenyl alpha-D-glucopyranoside as substrate after 10 mins by UV-Vis spectrophotometric analysis
Saccharomyces cerevisiae [3] = assay: Potency index, ratio of acarbose IC50 to compound IC50 for Saccharomyces cerevisiae alpha-glucosidase
Saccharomyces cerevisiae [4] = assay: as §2
Pancreatic alpha-amylase = target: T2, Pancreatic alpha-amylase (Sus scrofa, UniProt P00690); assay: as §1
T2 sequence (P00690 whole entry): T1 sequence (whole entry)

| Structure (SMILES) | inhibition [1] | inhibition (Saccharomyces cerevisiae [4]) | other results |
| --- | --- | --- | --- |
| O=c1c(O[C@@H]2O[C@H](CO)[C@H](O)[C@H](O)[C@H]2O[C@@H]2O[C@H](CO)[C@@H](O)[C@H](O)[C@H]2O)c(-c2ccc(O)cc2)oc2cc(O)cc(O)c12 | Active |  |  |
| O=C(O)C1=CO[C@@H](O[C@@H]2O[C@H](CO)[C@@H](O)[C@H](O)[C@H]2O)[C@@H]2C(CO)=C[C@@H](O)[C@H]12 | Active |  |  |
| CC(=O)OCC1=C[C@@H]2OC(=O)C3=CO[C@@H](O[C@@H]4O[C@H](CO)[C@@H](O)[C@H](O)[C@H]4O)[C@H]1[C@@H]32 | Active |  |  |
| CC(C)=CCOc1cc(O)c2c(c1)O[C@H](c1ccc(O)c(O)c1)CC2=O |  |  | IC50 [2]: 28.1 µM; Ratio IC50 (Saccharomyces cerevisiae [3]): 10 |
| COc1cc2ccc(=O)oc2c(O)c1O |  | Active |  |
| CC(=O)OCC1=C[C@H](O)[C@@H]2C(C(=O)O)=CO[C@@H](O[C@@H]3O[C@H](CO)[C@@H](O)[C@H](O)[C@H]3O)[C@H]12 |  |  | IC50 (Pancreatic alpha-amylase): 69.4 µM |
| C=C(C)C(O)Cc1c(O)c(OC)cc2ccc(=O)oc12 (configuration not stated) | Active | Active |  |
| COc1cc2ccc(=O)oc2c2c1O[C@](C)(CO)C(O)=C2 | Active | Active |  |
| C[C@]1(CO)Oc2c(O)cc3ccc(=O)oc3c2C=C1O | Active |  |  |
| O=C(/C=C/c1ccc(O)c(O)c1)O[C@@H]1C[C@](O)(C(=O)O)C[C@@H](O)[C@H]1O | Active |  |  |
| C=C(C)[C@H]1Cc2c(c(O)cc3ccc(=O)oc23)O1 | Active | Active |  |
| C[C@H]1O[C@H](O[C@H]2[C@H](O)[C@@H](O)[C@@H](O[C@H]3[C@H](O)[C@@H](O)C(O)O[C@@H]3CO)O[C@@H]2CO)[C@H](O)[C@@H](O)[C@@H]1N[C@H]1C=C(CO)[C@@H](O)[C@H](O)[C@H]1O (some centres not stated) [ACARBOSE] |  |  | IC50 [2]: 403 µM |
| COc1cc(O)c2c(=O)c(O)c(-c3ccc(O)c(O)c3)oc2c1 [RHAMNETIN] |  |  | IC50 (Pancreatic alpha-amylase): 73.9 µM |
